Measured values published in US12612387B2, “RAS inhibitors and methods of using the same” (Jazz Pharmaceuticals Ireland Limited, priority 2020, dated 2026).

Columns and labels:
[1] = target: T1, K-RAS G12C (Homo sapiens, UniProt P01116, G12C); assay: Compound depletion assay, K-RAS G12C; assay type: binding; settings: G12C protein 20 μM, compound 8 μM, 25° C.
T1 construct: His tag; purchased Stratech
Procedure: (§1) Compound Depletion Assay Method
(§2) Lyophilized human K-RAS (12 Cys) protein (His tag) and human K-RAS (12 Asp) protein (His tag) were purchased from Stratech and reconstituted at 30 μM in water. The protein concentration of K-RAS G12C and K-RAS G12D was adjusted to 20 μM in K-RAS Assay Buffer (20 mM HEPES pH 7.5, 150 mM NaCl, 1 mM MgCl2). A 49 μl aliquot of protein solution was transferred to 1.5 ml eppendorfs and incubated at room temperature for 10 minutes. A 1 μl aliquot of compound solution in DMSO was added to the protein solutions in the 1.5 ml eppendorfs to initiate the reaction, with a final assay compound concentration of 8 μM. Reactions were agitated at 25° C., 700 rpm. At each time point (0, 30, 180, 360, 1440 minutes), 10 μl of the reaction mixture was removed, added to 30 μl quench solution (0.3% formic acid, 75 nM propranolol in acetonitrile) to stop the reaction and stored at 4° C. Once all reactions were quenched, the samples were centrifuged at 16000 g for 10 minutes to pellet the protein and salts. A 10 μl aliquot of supernatant containing compound was diluted in 50:50 acetonitrile:H2O in a 96 well plate. The plates were heat sealed and the samples analysed by LC-MS/MS to determine the concentration of compound remaining in the samples. To determine the reaction progress, the compound signal was normalized to the internal standard signal (propranolol). The decrease in free compound concentration is shown as a percentage over time, with the […] at time zero fixed at one hundred percent. Compound is assumed to be completely depleted when no longer detectable with a double blank sample as reference.

[2] = target: T2, K-RAS G12D (Homo sapiens, UniProt P01116, G12D); assay: Compound depletion assay, K-RAS G12D; assay type: binding; settings: G12D protein 20 μM, compound 8 μM, 25° C.
T2 construct: His tag; purchased Stratech
T2 sequence (P01116 1-188 isoform P01116-2 G12D): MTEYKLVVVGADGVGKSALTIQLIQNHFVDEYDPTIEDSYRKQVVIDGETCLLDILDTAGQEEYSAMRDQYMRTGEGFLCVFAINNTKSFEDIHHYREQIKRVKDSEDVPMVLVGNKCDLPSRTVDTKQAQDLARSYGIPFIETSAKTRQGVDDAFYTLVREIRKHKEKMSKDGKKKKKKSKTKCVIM
Procedure: as §1, §2

T1 sequence (P01116 1-188 isoform P01116-2 G12C): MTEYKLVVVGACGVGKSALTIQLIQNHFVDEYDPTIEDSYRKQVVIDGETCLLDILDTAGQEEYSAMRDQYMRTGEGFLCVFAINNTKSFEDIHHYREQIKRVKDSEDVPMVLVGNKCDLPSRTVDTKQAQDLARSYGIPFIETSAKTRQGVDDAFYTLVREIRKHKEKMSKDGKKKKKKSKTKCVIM

| SMILES | 30 min Category (compound remaining at timepoint) [1] | 3 hr Category (compound remaining at timepoint) [1] | 6 hr Category (compound remaining at timepoint) [1] | 30 min Category (compound remaining at timepoint) [2] | 3 hr Category (compound remaining at timepoint) [2] | 6 hr Category (compound remaining at timepoint) [2] | 24 hr Category (compound remaining at timepoint) [1] | 24 hr Category (compound remaining at timepoint) [2] |
| --- | --- | --- | --- | --- | --- | --- | --- | --- |
| C=CC(=O)N1CCN(c2cc(C(=O)Nc3cc(O)cc4ccccc34)nc(NCC3CCCN3C)n2)C[C@@H]1CC#N (stereo partly drawn) [Example 45, 6-[(3S)-3-(cyanomethyl)-4-prop-2-enoyl-piperazin-1-yl]-N-(3-hydroxy-1-naphthyl)-2-[(1-methylpyrrolidin-2-yl)methylamino]pyrimidine-4-carboxamide] | B (30%-70% compound remaining at timepoint) | C (≤30% compound remaining at timepoint) | C (≤30% compound remaining at timepoint) | A (≥70% compound remaining at timepoint) | A (≥70% compound remaining at timepoint) | A (≥70% compound remaining at timepoint) |  |  |
| C=CC(=O)N1CCN(c2cc(C(=O)Nc3cc(O)cc4ccccc34)nc(-c3ccc4cnn(C)c4c3)n2)C[C@@H]1CC#N [Example 32, 6-[(3S)-3-(cyanomethyl)-4-prop-2-enoyl-piperazin-1-yl]-N-(3-hydroxy-1-naphthyl)-2-(1-methylindazol-6-yl)pyrimidine-4-carboxamide] | A (≥70% compound remaining at timepoint) | A (≥70% compound remaining at timepoint) | A (≥70% compound remaining at timepoint) | A (≥70% compound remaining at timepoint) | A (≥70% compound remaining at timepoint) | A (≥70% compound remaining at timepoint) |  |  |
| C=CC(=O)N1CCN(c2cc(C(=O)Nc3ccccc3)nc(OC[C@@H]3CCCN3C)n2)CC1 [Example 18, 2-[[(2S)-1-methylpyrrolidin-2-yl]methoxy]-N-phenyl-6-(4-prop-2-enoylpiperazin-1-yl)pyrimidine-4-carboxamide] |  | A (≥70% compound remaining at timepoint) |  |  | A (≥70% compound remaining at timepoint) |  | A (≥70% compound remaining at timepoint) | A (≥70% compound remaining at timepoint) |
| C=CC(=O)N1CCN(c2cc(C(=O)Nc3cc(O)cc4ccccc34)nc(NC[C@@H]3CCCN3CCO)n2)C[C@@H]1CC#N [Example 46, 6-[(3S)-3-(cyanomethyl)-4-prop-2-enoyl-piperazin-1-yl]-2-[[(2S)-1-(2-hydroxyethyl)pyrrolidin-2-yl]methylamino]-N-(3-hydroxy-1-naphthyl)pyrimidine-4-carboxamide] | B (30%-70% compound remaining at timepoint) | C (≤30% compound remaining at timepoint) | C (≤30% compound remaining at timepoint) | A (≥70% compound remaining at timepoint) | A (≥70% compound remaining at timepoint) | A (≥70% compound remaining at timepoint) |  |  |
| C=CC(=O)N1CCN(c2cc(C(=O)N3CCCc4cccc(C)c43)nc(OC[C@@H]3CCCN3C)n2)CC1 [Example 17, 1-[4-[6-(8-methyl-3,4-dihydro-2H-quinoline-1-carbonyl)-2-[[(2S)-1-methylpyrrolidin-2-yl]methoxy]pyrimidin-4-yl]piperazin-1-yl]prop-2-en-1-one] |  | A (≥70% compound remaining at timepoint) |  |  | A (≥70% compound remaining at timepoint) |  | A (≥70% compound remaining at timepoint) | A (≥70% compound remaining at timepoint) |
| C=CC(=O)N1CCN(c2cc(C(=O)Nc3cc(O)cc4ccccc34)nc(OCc3ccnn3C)n2)C[C@@H]1CC#N [Example 35, 6-[(3S)-3-(cyanomethyl)-4-prop-2-enoyl-piperazin-1-yl]-N-(3-hydroxy-1-naphthyl)-2-[(2-methylpyrazol-3-yl)methoxy]pyrimidine-4-carboxamide] | B (30%-70% compound remaining at timepoint) | C (≤30% compound remaining at timepoint) | C (≤30% compound remaining at timepoint) | A (≥70% compound remaining at timepoint) | A (≥70% compound remaining at timepoint) | A (≥70% compound remaining at timepoint) |  |  |
| C=CC(=O)N1CCN(c2cc(C(=O)Nc3ccccc3O)nc(OC[C@@H]3CCCN3C)n2)CC1 [Example 06, N-(2-hydroxyphenyl)-2-[[(2S)-1-methylpyrrolidin-2-yl]methoxy]-6-(4-prop-2-enoylpiperazin-1-yl)pyrimidine-4-carboxamide] |  | A (≥70% compound remaining at timepoint) |  |  | A (≥70% compound remaining at timepoint) |  | A (≥70% compound remaining at timepoint) | A (≥70% compound remaining at timepoint) |
| C=CC(=O)N1C[C@@H]2C[C@H]1CN2c1cc(C(=O)Nc2cc(O)cc3ccccc23)nc(OC[C@@H]2CCCN2C)n1 [Example 23, N-(3-hydroxy-1-naphthyl)-2-[[(2S)-1-methylpyrrolidin-2-yl]methoxy]-6-[(1S,4S)-2-prop-2-enoyl-2,5-diazabicyclo[2.2.1]heptan-5-yl]pyrimidine-4-carboxamide] | A (≥70% compound remaining at timepoint) | A (≥70% compound remaining at timepoint) | A (≥70% compound remaining at timepoint) | A (≥70% compound remaining at timepoint) | A (≥70% compound remaining at timepoint) | A (≥70% compound remaining at timepoint) |  |  |
| C=CC(=O)N1CCN(c2cc(C(=O)Nc3cccc4[nH]ncc34)nc(OC[C@@H]3CCCN3C)n2)CC1 [Example 22, N-(1H-indazol-4-yl)-2-[[(2S)-1-methylpyrrolidin-2-yl]methoxy]-6-(4-prop-2-enoylpiperazin-1-yl)pyrimidine-4-carboxamide] |  | A (≥70% compound remaining at timepoint) |  |  | A (≥70% compound remaining at timepoint) |  | A (≥70% compound remaining at timepoint) | A (≥70% compound remaining at timepoint) |
| C=CC(=O)N1CCN(c2cc(C(=O)Nc3cc(O)cc4ccccc34)nc(OC[C@@H]3CCCN3C(C)C)n2)C[C@@H]1CC#N [Example 54, 6-[(3S)-3-(cyanomethyl)-4-prop-2-enoyl-piperazin-1-yl]-N-(3-hydroxy-1-naphthyl)-2-[[(2S)-1-isopropylpyrrolidin-2-yl]methoxy]pyrimidine-4-carboxamide] | C (≤30% compound remaining at timepoint) | C (≤30% compound remaining at timepoint) | C (≤30% compound remaining at timepoint) | A (≥70% compound remaining at timepoint) | A (≥70% compound remaining at timepoint) | A (≥70% compound remaining at timepoint) |  |  |
